EC50 data for 40 molecules are collected here from patent publication US20230233541A1, “SUBSTITUTED BENZAMIDES AS MODULATORS OF TREX1” (Constellation Pharmaceuticals, Inc., priority 2020, published 2023).

In general, EC50 refers to the concentration that produces a half-maximal response.

In test [1] the target is T1, human TREX2 (residues M44-A279) (Homo sapiens, UniProt Q9BQ50).
T1 construct: human TREX2 (residues M44-A279, expressed in E. coli); His-Tev (His tag with TEV protease site) (N); made in house; host or cells: E. coli
T1 sequence (Q9BQ50 44-279 isoform Q9BQ50-1): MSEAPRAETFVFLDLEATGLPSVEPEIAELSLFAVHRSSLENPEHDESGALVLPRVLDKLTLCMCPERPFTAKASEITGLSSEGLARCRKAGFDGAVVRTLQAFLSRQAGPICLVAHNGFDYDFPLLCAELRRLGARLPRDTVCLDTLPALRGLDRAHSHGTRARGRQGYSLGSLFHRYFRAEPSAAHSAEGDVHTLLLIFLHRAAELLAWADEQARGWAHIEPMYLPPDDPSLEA
As to the kind of experiment: TREX2 Biochemical Assay (fluorescence assay, degradation of dsDNA substrate). To be noted: 2.5 nM TREX2, 60 nM dsDNA substrate, 25 minutes at room temperature; read-out: hTREX2 EC50. How it is done: Degradation of the dsDNA liberates free fluorophore to produce a fluorescent signal. Specifically, 7.5 μL of N-terminally His-Tev tagged human TREX2 (residues M44-A279, expressed in E. coli and purified in house) in reaction buffer (50 mM Tris (pH 7.4), 150 mM NaCl, 2 mM DTT, 0.1 mg/mL BSA, 0.01% (v/v) Tween-20 and 100 mM MgCl2) was added to a 384-well Black ProxiPlate Plus (Perkin Elmer) which already contained compound (150 nL) at varying concentrations as a 10-point dose-response in DMSO. To this was added 7.5 μL of dsDNA substrate (Strand A: 5′ TEX615/GCT AGG CAG 3′; Strand B: 5′ CTG CCT AGC/IAbRQSp (IDT)) in reaction buffer. Final concentrations were 2.5 nM TREX2, 60 nM dsDNA substrate in reaction buffer with 1.0% DMSO (v/v). After 25 minutes at room temperature, reactions were quenched by the addition of 5 μL of stop buffer (same as reaction buffer plus 200 mM EDTA). Final concentrations in the quenched reaction mixture were […] TREX2, 45 nM DNA and 50 mM EDTA in a volume of 20 μL. After a 5-minute incubation at room temperature, plates were read in a laser sourced Envision (Perkin-Elmer), measuring fluorescence at 615 nm following excitation w/570 nm light. IC50 values were calculated by comparing the measured fluorescence at 615 nm ratio relative to control wells pre-quenched w/stop buffer (100% inhibition) and no inhibitor (0% inhibition) controls as using non-linear least square four parameter fits and either Genedata or GraphPad Prism (GraphPad Software, Inc.).

In the next test the target is T2, full length human TREX1 (Homo sapiens, UniProt Q9NSU2).
T2 construct: N-terminally His-Tev tagged full length human TREX1; His-Tev (His tag with TEV protease site) (N); made in house; host or cells: E. coli
T2 sequence (Q9NSU2 1-314): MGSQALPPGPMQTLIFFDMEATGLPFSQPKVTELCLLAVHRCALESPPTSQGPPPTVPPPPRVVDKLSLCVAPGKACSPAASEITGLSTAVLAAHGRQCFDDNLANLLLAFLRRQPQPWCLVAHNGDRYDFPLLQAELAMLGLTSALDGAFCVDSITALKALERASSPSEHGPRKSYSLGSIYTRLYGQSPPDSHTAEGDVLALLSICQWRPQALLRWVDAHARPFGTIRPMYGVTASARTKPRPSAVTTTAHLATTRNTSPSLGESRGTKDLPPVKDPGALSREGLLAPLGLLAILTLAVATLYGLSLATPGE
Kind of test: TREX1 Biochemical Assay (fluorescence assay, degradation of dsDNA substrate). To be noted: 150 pM TREX1, 60 nM dsDNA substrate, 25 minutes at room temperature; read-out: hTREX1 EC50. The method, then:
Degradation of the dsDNA liberates free fluorophore to produce a fluorescent signal. Specifically, 7.5 μL of N-terminally His-Tev tagged full length human TREX1 (expressed in E. coli and purified in house) in reaction buffer (50 mM Tris (pH 7.4), 150 mM NaCl, 2 mM DTT, 0.1 mg/mL BSA, 0.01% (v/v) Tween-20 and 100 mM MgCl2) was added to a 384-well Black ProxiPlate Plus (Perkin Elmer) which already contained compound (150 nL) at varying concentrations as a 10-point dose-response in DMSO. To this was added 7.5 μL of dsDNA substrate (Strand A: 5′ TEX615/GCT AGG CAG 3′; Strand B: 5′ CTG CCT AGC/IAbRQSp (Integrated DNA Technologies)) in reaction buffer. Final concentrations were 150 pM TREX1, 60 nM dsDNA substrate in reaction buffer with 1.0% DMSO (v/v). After 25 minutes at room temperature, reactions were quenched by the addition of 5 μL of stop buffer (same as reaction buffer plus 200 mM EDTA). Final concentrations in the quenched reaction were 112.5 pM TREX1, 45 nM DNA and 50 mM EDTA in a volume of 20 μL. After a 5-minute incubation at room temperature, plates were read in a laser sourced Envision (Perkin-Elmer), measuring fluorescence at 615 nm following excitation w/570 nm light. IC50 values were calculated by comparing the measured fluorescence at 615 nm ratio relative to control wells pre-quenched w/stop buffer (100% inhibition) and no inhibitor (0% inhibition) controls as using non-linear least square four parameter fits and either Genedata or GraphPad Prism (GraphPad Software, Inc.).

For the molecule `O=C(c1cncnc1)N(Cc1cccnc1)Cc1ccc(Cl)cc1Cl` [Compound 100], the EC50 in test [1] is over 100 µM; on full length human TREX1 it was over 10 µM.

For `Cc1noc(C)c1C(=O)N(Cc1cccnc1)Cc1ccc(Cl)cc1Cl` [Compound 115], the EC50 in test [1] was over 100 µM; at full length human TREX1 it was over 10 µM. For the molecule `COc1cc(Br)cc(C(=O)N(Cc2cccnc2)Cc2ccc(Cl)cc2Cl)c1` [Compound 87], the EC50 was over 100 µM in test [1] and over 10 µM at full length human TREX1. In the case of `C[C@H](c1ccc(Cl)cc1Cl)N(Cc1cccnc1)C(=O)c1cccc(F)c1` [Compound 155], the figures for the EC50 (in test [1]; on full length human TREX1) were 10 to 100 µM and 0.1 to 1 µM, respectively. As to `O=C(c1cc(F)cc(F)c1)N(Cc1ccc(-c2noc(=O)[nH]2)nc1)Cc1cccc(Cl)c1Cl` [Compound 262], the EC50 in test [1] was 1 to 10 µM; on full length human TREX1, 0.1 to 1 µM. Taken in the same sequence, the figures for `NCCC[C@H](c1cccc(Cl)c1Cl)N(Cc1cccnc1)C(=O)c1cc(F)cc(F)c1` [Compound 249] were 10 to 100 µM and 1 to 10 µM. Take `O=C(c1ccc(CO)cc1)N(Cc1cccnc1)Cc1ccc(Cl)cc1Cl` [Compound 83]: the EC50 in test [1] is over 100 µM; on full length human TREX1, over 10 µM. Taken in the same sequence, the figures for `COc1nccc(CN(Cc2ccc(C(=O)O)nc2)C(=O)c2cc(F)cc(F)c2)c1Cl` [Compound 188] were 1 to 10 µM and under 0.1 µM. As for `O=C(C1CC1)N(Cc1cccnc1)Cc1ccc(Cl)cc1Cl` [Compound 81], the results for the EC50 (in test [1]; at full length human TREX1) were over 100 µM and over 10 µM, respectively.

As to `CC[C@@H](c1ccc2c(c1Cl)OCO2)N(Cc1ccc(C(=O)O)nc1)C(=O)c1cc(F)cc(F)c1` [Compound 230], the EC50 in test [1] is 1 to 10 µM; at full length human TREX1 it was under 0.1 µM. Take `O=C(c1ccc(Cl)cc1)N(Cc1cccnc1)Cc1cc(Cl)cc(Cl)c1` [Compound 29]: the EC50 in test [1] is over 100 µM; at full length human TREX1 it was over 10 µM. Consider `COc1cccc([C@@H](C)N(Cc2ccc(-c3ccn[nH]3)nc2)C(=O)c2cc(F)cc(F)c2)c1Cl` [Compound 225], for which the EC50 in test [1] was in the range of 10 to 100 µM; at full length human TREX1, 0.1 to 1 µM. On to `O=C(c1cc(F)c(F)c(F)c1)N(Cc1cccnc1)Cc1ccc(Cl)cc1Cl` [Compound 119], for which the EC50 in test [1] lay within 10 to 100 µM; on full length human TREX1, 0.1 to 1 µM. Taken in the same sequence, the figures for `O=C(O)c1ccc(CN(Cc2sc(Cl)nc2Cl)C(=O)c2cc(F)cc(F)c2)cn1` [Compound 200] were 10 to 100 µM and 0.1 to 1 µM. Taken in the same sequence, the figures for `CC(C)c1ccc(C(=O)N(Cc2cccnc2)Cc2ccc(Cl)cc2Cl)cc1` [Compound 85] were over 100 µM and over 10 µM. On to `O=C(c1cc(F)cc(F)c1)N(Cc1ccc(-c2cc(=O)[nH][nH]2)nc1)Cc1ccccc1Cl` [Compound 221], for which the results for the 50% effective concentration (EC50) (in test [1]; at full length human TREX1) were 10 to 100 µM and 0.1 to 1 µM, respectively.

Take `COc1cc(C(=O)O)ncc1CN(Cc1cccc(Cl)c1Cl)C(=O)c1cc(F)cc(F)c1` [Compound 208]: the EC50 in test [1] is under 1 µM; at full length human TREX1, under 0.1 µM.

For the molecule `O=C(c1ccc(CO)cc1F)N(Cc1cccnc1)Cc1ccc(Cl)cc1Cl` [Compound 84], the EC50 in test [1] is over 100 µM; on full length human TREX1, over 10 µM. In the case of `CNc1cc(CN(Cc2cccc(Cl)c2Cl)C(=O)c2cc(F)cc(F)c2)cnc1C(=O)O` [Compound 240], the EC50 in test [1] is 10 to 100 µM; on full length human TREX1, under 0.1 µM. Regarding `O=C(c1ccc(Oc2ccc(Cl)cc2)cc1)N(Cc1cccnc1)Cc1cc(Cl)cc(Cl)c1` [Compound 59], the EC50 in test [1] is over 100 µM; at full length human TREX1, over 10 µM.

For `O=C(c1ccccc1F)N(Cc1cccnc1)Cc1cc(Cl)cc(Cl)c1` [Compound 37], the EC50 in test [1] is over 100 µM; at full length human TREX1, over 10 µM. In the case of `O=C(c1ccccc1N1CCCCC1)N(Cc1cccnc1)Cc1ccc(Cl)cc1Cl` [Compound 42], the figures for the EC50 (in test [1]; on full length human TREX1) were over 100 µM and over 10 µM, respectively. Taken in the same sequence, the figures for `O=C(c1ccc(O)c(C(F)(F)F)c1)N(Cc1cccnc1)Cc1cc(Cl)cc(Cl)c1` [Compound 72] were over 100 µM and over 10 µM. Taken in the same sequence, the figures for `Cc1cc(C(=O)N(Cc2cccnc2)Cc2cc(Cl)cc(Cl)c2)cc(C)c1O` [Compound 69] were over 100 µM and over 10 µM. Taken in the same sequence, the figures for `COc1cc(C(=O)N(Cc2cccnc2)Cc2ccc(Cl)cc2Cl)cc(Cl)c1O` [Compound 22] were over 100 µM and over 10 µM.

Regarding `Cn1ncc(CN(Cc2ccc(C(=O)O)nc2)C(=O)c2cc(F)cc(F)c2)c1Cl` [Compound 184], the EC50 is 10 to 100 µM in test [1] and 0.1 to 1 µM on full length human TREX1.

For the molecule `COc1cccc(CN(Cc2ccc(NC(C)=O)nc2)C(=O)c2cccc(F)c2)c1Cl` [Compound 213, N-((6-acetamidopyridin-3-yl)methyl)-N-(2-chloro-3-methoxybenzyl)-3-fluorobenzamide], the EC50 in test [1] is over 100 µM; at full length human TREX1 it was over 10 µM. Regarding `O=C(c1ccccc1F)N(Cc1cccnc1)Cc1ccc(Cl)cc1Cl` [Compound 4], the EC50 on full length human TREX1 is over 10 µM. For `Cc1cc(C(=O)N(Cc2cccnc2)Cc2ccc(Cl)cc2Cl)ccc1Br` [Compound 16], the EC50 on full length human TREX1 was over 10 µM. Same read-out and setting: under `Cc1ccc(C(=O)N(Cc2cccnc2)Cc2ccc(Cl)cc2Cl)c(Br)c1` [Compound 9] stands over 10 µM. Still for that read-out and setting: under `O=C(c1cc(Cl)ccc1O)N(Cc1cccnc1)Cc1ccc(Cl)cc1Cl` [Compound 20] stands over 10 µM; under `O=C(c1ccc(Cl)cc1)N(Cc1cccnc1)Cc1ccc(Cl)cc1Cl` [Compound 8], over 10 µM; under `O=C(c1ccc(Cl)cc1Br)N(Cc1cccnc1)Cc1ccc(Cl)cc1Cl` [Compound 14], over 10 µM. On the same count and under the same terms, under `O=C(c1ccc(O)c(Br)c1)N(Cc1cccnc1)Cc1ccc(Cl)cc1Cl` [Compound 15] stands over 10 µM; under `O=C(c1ccc(Br)cc1Cl)N(Cc1cccnc1)Cc1ccc(Cl)cc1Cl` [Compound 18], over 10 µM; under `O=C(c1ccc(Cl)c(Cl)c1)N(Cc1cccnc1)Cc1ccc(Cl)cc1Cl` [Compound 7], over 10 µM.

Regarding `O=C(c1ccc(O)c(F)c1)N(Cc1cccnc1)Cc1ccc(Cl)cc1Cl` [Compound 21], at full length human TREX1, the EC50 is over 10 µM.

On to `COc1cccc(C(=O)N(Cc2cccnc2)Cc2ccc(Cl)cc2Cl)c1` [Compound 13], for which, at full length human TREX1, the EC50 fell in the range of 1 to 10 µM. Same read-out and setting: in the case of `O=C(c1ccc(O)c(Cl)c1)N(Cc1cccnc1)Cc1ccc(Cl)cc1Cl` [Compound 3] it was over 10 µM; in that of `O=C(c1ccc(Cl)cc1O)N(Cc1cccnc1)Cc1ccc(Cl)cc1Cl` [Compound 17], over 10 µM.
